Test results as given in publication PMC10349806 (Nature Communications, 2023).
Numbering of substitutions follows the chain as printed. Values joined by “and” are separate entries in the source; they are usually repeats but may differ in a detail not shown here. Identical values can stand only once.

Experiments:
[1] = biological target: T1, PfCRT variant H273A (Plasmodium falciparum, UniProt Q9N623, A220S/H273A/I356T/K76T/M74I/N326S/N75E/Q271E/R371I); test: CQ uptake assay, oocytes expressing H273A; assay type: cell-based
T1 sequence (Q9N623 1-424 M74I/N75E/K76T/A220S/Q271E/H273A/N326S/I356T/R371I): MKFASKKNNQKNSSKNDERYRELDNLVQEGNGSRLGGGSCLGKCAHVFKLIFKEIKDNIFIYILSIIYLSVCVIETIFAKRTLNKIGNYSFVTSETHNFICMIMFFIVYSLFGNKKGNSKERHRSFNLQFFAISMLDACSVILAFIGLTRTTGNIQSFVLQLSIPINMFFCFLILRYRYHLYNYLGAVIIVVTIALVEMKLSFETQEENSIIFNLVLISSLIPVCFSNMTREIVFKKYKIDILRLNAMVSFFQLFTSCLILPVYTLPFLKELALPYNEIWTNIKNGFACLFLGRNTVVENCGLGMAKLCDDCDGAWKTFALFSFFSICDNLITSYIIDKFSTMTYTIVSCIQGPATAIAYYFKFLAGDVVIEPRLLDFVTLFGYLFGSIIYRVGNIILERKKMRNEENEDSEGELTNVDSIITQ
Protocol: (§1) Site-directed mutagenesis of PfCRT^Dd2 was performed as described using the megaprimer method with overlap extension[21],[54]. The primer pairs used are listed in Supplementary Table 6. Please note that a codon-optimized and oocyte-adapted version of PfCRT^Dd2 was used[22] (Supplementary Fig. 16). The resulting DNA fragment was cloned into the SP64T expression vector and verified by sequencing.
(§2) Oocytes were obtained as described previously. Briefly, adult (>2 years old) female X. laevis frogs (NASCO) were anesthetized in a cooled solution of ethyl 3-amino benzoate methanesulfonate (0.1%, w/v), followed by a surgical removal of parts of the ovary. The ovary lobes were carefully dissected and small pieces of oocytes were incubated in Ca^2+-free ND96 buffer (96 mM NaCl, 2 mM KCl, 1 mM MgCl2 buffered with 5 mM HEPES/NaOH, pH 7.5) supplemented with collagenase D (0.1%, w/v; Roche), BSA (0.5%, w/v), and 9 mm Na2HPO4 at 18 °C for 14-16 h while gentle shaking. After incubation, the oocytes were carefully washed several times with ND96 buffer (96 mM NaCl, 2 mM KCl, 1.8 mM CaCl2, 1 mM MgCl2 buffered with 5 mM HEPES/NaOH, pH 7.5) supplemented with 100 mg l^−1 gentamycin). Defolliculated and healthy-looking stage V-VI oocytes were manually selected for RNA microinjection. The RNA was generated as following: The codon-optimized sequences of PfCRT variants were cloned into the pSP64T expression vector. After vector linearization using the restriction endonucleases BamHI or SalI (New England Biolabs), transcription was performed using the in vitro SP6 mMessage mMachine Kit (Ambion)[34]. The obtained RNA was kept at −80 °C and diluted with nuclease-free water to a concentration of 0.6 μg μl^−1. Precision-bore glass capillary tubes (3.5-inch glass capillaries; Drummond Scientific Co.) were pulled on a vertical puller (P-87 Flaming/Brown micropipette puller, Sutter Instrument Co.), graduated, and placed on a microinjector (Nanoject II Auto-Nanoliter Injector, Drummond Scientific Co.). 50 nl of nuclease-free water alone (control oocytes) or 50 nl of 0.6 μg μl^−1 RNA were injected under stereomicroscopic control. Injected oocytes were incubated for 46–72 h at 18 °C with twice-daily buffer changes before usage in experiments.
(§3) Drug uptake assays were performed as described previously[21],[22],[24],[34]. […] The direction of radio-labeled drug transport is here from the mostly acidic extracellular solution (pH 4.5 or 6.0, as indicated) into the oocyte cytosol (pH ∼ 7.2), which corresponds to the efflux of drug from the acidic digestive vacuole (pH 5.2) into the parasite cytoplasm (pH 7.2). The topology of PfCRT in the oolemma is such that both the N- and C-terminus face the extracellular milieu[3],[22]. In the parasite, the N- and C-terminus face the lumen of the digestive vacuole. CQ uptake kinetics were performed by incubating oocytes in ND96 buffer adjusted to a pH of 4.5, 5.0, 5.5, or 6.0 and supplemented with 50 nM [^3H]CQ and one of 7 different CQ concentrations (10 µM, 50 µM, 100 µM, 200 µM, 300 µM, 400 µM, 500 µM CQ). The reaction was stopped at the 60 min time point, which is in the linear uptake range[22],[34] (Supplementary Fig. 17). […] The radioactivity of each sample was measured using a liquid scintillation analyzer Tri-Carb 4910 TR (PerkinElmer). Oocytes that were injected with water instead of RNA were analyzed in parallel, representing the uptake of a drug by diffusion and/or endogenous permeation pathways. […]

[2] = biological target: T2, PfCRT variant E278A (Plasmodium falciparum, UniProt Q9N623, A220S/E278A/I356T/K76T/M74I/N326S/N75E/Q271E/R371I); test: CQ uptake assay, oocytes expressing E278A; assay type: cell-based
T2 sequence (Q9N623 1-424 M74I/N75E/K76T/A220S/Q271E/E278A/N326S/I356T/R371I): T1 sequence (Q9N623 1-424 M74I/N75E/K76T/A220S/Q271E/H273A/N326S/I356T/R371I) with A273H, E278A
Protocol: as §1, §2, §3

[3] = tested on: PfCRT variant E207F; test: CQ uptake assay, oocytes expressing E207F; assay type: cell-based, Plasmodium falciparum
Protocol: as §1, §2
Drug uptake assays were performed as described previously[21],[22],[24],[34]. […] The direction of radio-labeled drug transport is here from the mostly acidic extracellular solution (pH 4.5 or 6.0, as indicated) into the oocyte cytosol (pH ∼ 7.2), which corresponds to the efflux of drug from the acidic digestive vacuole (pH 5.2) into the parasite cytoplasm (pH 7.2). The topology of PfCRT in the oolemma is such that both the N- and C-terminus face the extracellular milieu[3],[22]. In the parasite, the N- and C-terminus face the lumen of the digestive vacuole. CQ uptake kinetics were performed by incubating oocytes in ND96 buffer adjusted to a pH of 4.5, 5.0, 5.5, or 6.0 and supplemented with 50 nM [^3H]CQ and one of 7 different CQ concentrations (10 µM, 50 µM, 100 µM, 200 µM, 300 µM, 400 µM, 500 µM CQ). The reaction was stopped at the 60 min time point, which is in the linear uptake range[22],[34] (Supplementary Fig. 17). For determination of the amount of drug uptake for each oocyte, the reaction medium was removed and the oocytes were washed three times with 2 ml of ice-cold ND96 buffer. Each oocyte was individually transferred to a scintillation vial containing 5% sodium dodecyl sulfate (200 μl) for lysis. The radioactivity of each sample was measured using a liquid scintillation analyzer Tri-Carb 4910 TR (PerkinElmer). Oocytes that were injected with water instead of RNA were analyzed in parallel, representing the uptake of a drug by diffusion and/or endogenous permeation pathways. The resulting value represents the “background“ level of drug accumulation in oocytes (in-depth discussion in[22]). […]

[4] = H273A, 50 µM CQ, 1 h, mean ± SEM
[5] = pH 4.5, single replicates, Fig 1d left
[6] = pH 6.0, single replicates, Fig 1d left
[7] = E278A, 50 µM CQ, 1 h, mean ± SEM
[8] = E207F, 50 µM CQ, 1 h, mean ± SEM

For CCN(CC)CCCC(C)Nc1ccnc2cc(Cl)ccc12 (stereo not shown) [CQ, chloroquine], the “Activity at pH 4.5” value [1, 4] was 0.08 ± 0.04 pmol h-1 oocyte-1, the “Activity at pH 6.0” value [1, 4] was 2.43 ± 0.40 pmol h-1 oocyte-1 and the R-value ([1]; H273A, CQ transport at pH 4.5 / pH 6.0) was 0.03 ± 0.02. The “H273A transport activity pH 4.5” value [1, 5] was 0.17 pmol oocyte-1 h-1 and 0.00 pmol oocyte-1 h-1 and 0.06 pmol oocyte-1 h-1, the “H273A transport activity pH 6.0” value [1, 6] was 2.70 pmol oocyte-1 h-1 and 3.11 pmol oocyte-1 h-1 and 1.48 pmol oocyte-1 h-1 and the “Activity at pH 4.5” value [2, 7] was 1.17 ± 0.07 pmol h-1 oocyte-1. The “Activity at pH 6.0” value [2, 7] was 2.21 ± 0.24 pmol h-1 oocyte-1, the R-value ([2]; E278A, CQ transport at pH 4.5 / pH 6.0) was 0.56 ± 0.10 and the “E278A transport activity pH 4.5” value [2, 5] was 1.19 pmol oocyte-1 h-1 and 1.00 pmol oocyte-1 h-1 and 1.31 pmol oocyte-1 h-1. The “E278A transport activity pH 6.0” value [2, 6] was 2.40 pmol oocyte-1 h-1 and 2.59 pmol oocyte-1 h-1 and 1.63 pmol oocyte-1 h-1, the “Activity at pH 4.5” value [3, 8] was 2.67 ± 0.27 pmol h-1 oocyte-1 and the “Activity at pH 6.0” value [3, 8] was 3.27 ± 0.42 pmol h-1 oocyte-1. For the same compound, the R-value ([3]; E207F, CQ transport at pH 4.5 / pH 6.0) was 0.84 ± 0.09, the “E207F transport activity pH 4.5” value ([3]; pH 4.5, individual replicates, Fig 6b) was 3.33 pmol oocyte-1 h-1 and 3.06 pmol oocyte-1 h-1 and 2.01 pmol oocyte-1 h-1 and 2.27 pmol oocyte-1 h-1 and the “E207F transport activity pH 6.0” value ([3]; pH 6.0, individual replicates, Fig 6b) was 2.89 pmol oocyte-1 h-1 and 4.68 pmol oocyte-1 h-1 and 2.46 pmol oocyte-1 h-1 and 3.03 pmol oocyte-1 h-1. The “E207F R-value” ([3]; ratio of activity pH 4.5 / pH 6.0) was 1.15 and 0.65 and 0.82 and 0.75.
